The structures appear in SMILES notation. pEC50: −log10 of the molar value.

Type in all cases: cell-based
The subject of one assay is MV(4;11) cells. Nature of the assay: Viability assay (96 hours), Alamar Blue, single agent. The protocol:
(§1) AML cell lines were maintained in RPMI 10% FBS medium at 37° C. in a humidified incubator with controlled 5% CO2 atmosphere. Cell freezing and thawing was performed following recommendation from ATCC. Genetic profiling of the cell lines used is available in table 2. […] Three wells were reserved for each experimental condition; medium-only and vehicle-treated controls were also added for background correction and normalization respectively. […] Alamar Blue® is a cell viability indicator that uses the natural reducing power of living cells to convert resazurin to the fluorescent molecule, resorufin^43.
A general note: The colour change of resazurin is a common sign of viable cells or microbes.

The next assay relates to THP-1 cells. The assay is described as above. The protocol:
as §1

Another assay deals with HL-60 cells. Described as above. The procedure:
as §1

The next assay concerns KASUMI-1 cells. The description is as above. The protocol:
as §1

The test system of another assay is OCI-AML3 cells. The description is as above. The protocol:
as §1

The subject of another assay is MOLM-13 cells. The assay is described as above. The protocol:
as §1

Another assay deals with MOLT4 cells. In words: Viability assay (10 days), Alamar Blue, single agent. The procedure: MOLT4 cells were maintained in RPMI 10% FBS medium at 37° C. in a humidified incubator with controlled 5% CO2 atmosphere. Cell freezing and thawing was performed following recommendation from ATCC. Genetic profiling of the cell lines used is available in table 4.
2.1.2 Viability Assays (10 Days)
Three wells were reserved for each experimental condition; medium-only and vehicle-treated controls were also added for background correction and normalization respectively. After seeding, 50 μL of medium containing 8 1:3 serial dilution of ORY-1001 were added to the cells (range 0.015-100 nM). Cells were then incubated for 6 days at 37° C. in a controlled 5% CO2 atmosphere. On the sixth day, 1004, of medium with serial dilutions of ORY-1001 (as described previously) or vehicle were added to the cells. Medium without compound (100μ) was added to background control.
After 4 additional days of incubation, cell viability was evaluated using the Alamar Blue® staining as detailed in the section 1.1.2.

A further assay relates to OCI-AML2 cells. In words: Viability assay (96 hours), Alamar Blue, single agent. Conditions: Homo sapiens, OCI-AML2, 96 h, read-out: EC50 (viability). The procedure: as §1

As to `N[C@H]1CC[C@H](N[C@@H]2C[C@H]2c2ccccc2)CC1` [ORY-1001, (trans)-N1-((1R,2S)-2-phenylcyclopropyl)cyclohexane-1,4-diamine], the “EC50 (viability)” value in the assay with MV(4;11) cells (MV(4;11), 96 hours, single agent) is on record as “sub-nanomolar”; in the assay with THP-1 cells (THP-1, 96 hours, single agent), “sub-nanomolar”; in the assay with HL-60 cells (HL-60, 96 hours, single agent), “sub-nanomolar”; in the assay on KASUMI-1 cells (KASUMI-1, 96 hours, single agent), “sub-nanomolar”; in the assay with OCI-AML3 cells (OCI-AML3, 96 hours, single agent), “sub-nanomolar”; with MOLM-13 cells (MOLM-13, 96 hours, single agent) it was “sub-nanomolar”. The “EC50 (viability)” value in the assay with MOLT4 cells (MOLT4, 10 days of treatment, single agent) is on record as “sub-nanomolar”. Also, the “Effect on viability of MOLT-4 cells” value in the assay with MOLT4 cells (shorter treatment (96 hours), data not shown) was “not affecting the viability”.

As for `O=C(CCCCCCNC(=O)c1cnc(N(c2ccccc2)c2ccccc2)nc1)NO` [Rocilinostat, Ricolinostat, reference compound], the pEC50 in the assay with MV(4;11) cells (Homo sapiens, MV4-11, 96 h, read-out: EC50 (viability)) was 5.52 to 6.30; with THP-1 cells (Homo sapiens, THP-1, 96 h, read-out: EC50 (viability)), 5.52 to 6.30; in the assay on HL-60 cells (Homo sapiens, HL-60, 96 h, read-out: EC50 (viability)), 5.52 to 6.30; in the assay with KASUMI-1 cells (Homo sapiens, Kasumi 1, 96 h, read-out: EC50 (viability)) it was 5.52 to 6.30; with OCI-AML2 cells, 5.52 to 6.30; with OCI-AML3 cells (Homo sapiens, OCI-AML-3, 96 h, read-out: EC50 (viability)), 5.52 to 6.30. The pEC50 in the assay on MOLM-13 cells (Homo sapiens, MOLM-13, 96 h, read-out: EC50 (viability)) is 5.52 to 6.30.

The pEC50 is −log10 of the EC50, conventionally taken in molar units.

(Values after patent US20170281566A1, “COMBINATIONS OF LSD1 INHIBITORS FOR THE TREATMENT OF HEMATOLOGICAL MALIGNANCIES” (HOFFMANN-LA ROCHE INC., priority 2016, published 2017).)
